For one test, the target named is T1, α4β1 (Homo sapiens, UniProt P05556+P13612).
T1 construct: Ramos Cell Adhesion Assay (α4β1 Mediated Adhesion/VCAM-1); endogenous in cells; host or cells: Ramos cells
In words: Ramos Cell Adhesion Assay (α4β1 Mediated Adhesion/VCAM-1). Format: cell-based. The settings on record: Ramos cell adhesion to hVCAM-1; read-out: α4β1 IC50. Here is the method: Ramos Cell Adhesion Assay (α4β1 Mediated Adhesion/VCAM-1)
Immulon 96 well plates (Dynex) were coated with 100 μL recombinant hVCAM-1 at 4.0 μg/mL in 0.05 M NaCO3 buffer pH 9.0 overnight at 4° C. (R&D Systems). Plates were washed 2 times in PBS with 1% BSA and blocked for 1 h @ room temperature in this buffer. PBS was removed and compounds to be tested (50 μL) were added at 2× concentration. Ramos cells, (50 μL at 2×10^6/mL) labeled with 5 μM Calcein AM (Molecular Probes) for 1 h at 37° C., were added to each well and allowed to adhere for 1 h at room temperature. Plates were washed 4× in PBS+1% BSA and cells were lysed for 15 minutes in 100 μL of 1 M Tris pH 8.0 with 1% SDS.

Another test addresses T2, human α4β7 integrin (Homo sapiens, UniProt P13612+P26010).
T2 construct: expressed in transfected cells; host or cells: K562 cells, stably transfected
T2 sequence (P13612 34-1032): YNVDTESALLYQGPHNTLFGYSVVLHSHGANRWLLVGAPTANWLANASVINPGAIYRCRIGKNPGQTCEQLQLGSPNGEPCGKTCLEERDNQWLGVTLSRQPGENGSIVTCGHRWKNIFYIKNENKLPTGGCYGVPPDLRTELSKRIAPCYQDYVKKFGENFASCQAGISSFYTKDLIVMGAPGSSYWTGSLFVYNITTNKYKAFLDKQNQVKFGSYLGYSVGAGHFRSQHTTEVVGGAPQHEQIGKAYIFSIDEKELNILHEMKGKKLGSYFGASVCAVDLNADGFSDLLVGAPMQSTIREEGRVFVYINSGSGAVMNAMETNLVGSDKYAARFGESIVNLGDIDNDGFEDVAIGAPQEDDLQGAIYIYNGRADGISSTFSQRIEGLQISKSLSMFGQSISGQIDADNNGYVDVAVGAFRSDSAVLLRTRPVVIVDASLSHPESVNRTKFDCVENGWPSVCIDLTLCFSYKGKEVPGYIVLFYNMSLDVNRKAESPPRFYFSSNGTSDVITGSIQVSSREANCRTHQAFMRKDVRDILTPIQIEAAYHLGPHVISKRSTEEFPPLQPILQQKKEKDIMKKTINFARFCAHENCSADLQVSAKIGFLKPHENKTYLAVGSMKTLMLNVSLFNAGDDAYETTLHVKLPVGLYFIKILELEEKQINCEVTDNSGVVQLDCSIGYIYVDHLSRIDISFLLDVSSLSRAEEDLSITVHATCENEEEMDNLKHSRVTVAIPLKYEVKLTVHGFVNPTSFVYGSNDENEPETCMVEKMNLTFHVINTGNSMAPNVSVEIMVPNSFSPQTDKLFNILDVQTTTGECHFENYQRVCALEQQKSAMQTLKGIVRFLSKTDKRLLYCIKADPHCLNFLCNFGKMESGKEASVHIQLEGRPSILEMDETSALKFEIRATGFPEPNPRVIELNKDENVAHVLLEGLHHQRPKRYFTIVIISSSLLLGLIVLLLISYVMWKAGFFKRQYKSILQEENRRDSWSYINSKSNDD
T2 sequence (P26010 20-798): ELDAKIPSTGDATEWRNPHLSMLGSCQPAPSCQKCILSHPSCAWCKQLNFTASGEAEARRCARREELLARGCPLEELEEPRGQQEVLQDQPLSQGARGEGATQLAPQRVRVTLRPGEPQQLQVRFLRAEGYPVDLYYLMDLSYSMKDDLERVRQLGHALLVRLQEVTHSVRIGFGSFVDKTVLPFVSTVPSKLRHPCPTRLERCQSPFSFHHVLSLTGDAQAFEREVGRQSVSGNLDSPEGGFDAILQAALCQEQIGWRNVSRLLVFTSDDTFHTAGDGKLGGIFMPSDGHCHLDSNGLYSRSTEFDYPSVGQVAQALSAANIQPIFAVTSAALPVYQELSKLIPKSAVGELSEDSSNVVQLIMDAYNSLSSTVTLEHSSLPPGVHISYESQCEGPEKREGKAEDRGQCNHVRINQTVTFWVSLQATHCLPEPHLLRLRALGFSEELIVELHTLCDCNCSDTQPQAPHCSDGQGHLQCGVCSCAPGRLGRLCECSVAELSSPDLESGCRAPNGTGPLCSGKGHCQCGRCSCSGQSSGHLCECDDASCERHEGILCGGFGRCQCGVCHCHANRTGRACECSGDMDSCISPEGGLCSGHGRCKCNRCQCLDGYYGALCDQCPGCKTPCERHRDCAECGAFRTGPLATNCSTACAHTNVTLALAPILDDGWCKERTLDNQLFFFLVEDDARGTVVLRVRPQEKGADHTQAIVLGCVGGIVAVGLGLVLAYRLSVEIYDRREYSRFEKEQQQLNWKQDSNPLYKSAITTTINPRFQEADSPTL
As to the kind of experiment: α4β7-K562 Cell Adhesion Assay (α4β7 Mediated Adhesion/MAdCAM-1). Format: cell-based. To be noted: α4β7-K562 cell adhesion to hMAdCAM-1; read-out: α4β7 IC50. The protocol: α4β7-K562 Cell Adhesion Assay (α4β7 Mediated Adhesion/MAdCAM-1)
M2 anti-FLAG Antibody Coated 96-well plates (Sigma) were coated for 1 hour at 4° C. with 2-8 μl/well recombinant FLAG-hMAdCAM-1 contained in 100 μL of Dulbecco's PBS, pH 7.4, with 1% BSA and 1 mM Mn ^+2 (PBS-BSA-Mn). Plates were washed once with PBS-BSA-Mn. Buffer was removed and compounds to be tested (50 μL) were added at 2× concentration. Stably transfected K562 cells expressing human α4β7 integrin, (50 μL at 2×10^6/mL) that had been labeled with 100 μg/ml carboxymethyl fluorescein diacetate succinimidyl ester (CFDA-SE; Molecular Probes) for 15 min at 37° C. were added to each well and allowed to adhere for 1 h at room temperature. Plates were washed 4× in PBS-BSA-Mn and then cells were lysed for 2 minutes by addtion of 100 μL of PBS without Ca, Mg supplemented with 0.1 M NaOH.

SMILES strings stand for the structures.

In patent publication US20050192279A1, “Pyridazinones as antagonists of alpha4 integrins” (priority 2004, published 2005) one finds IC50 data, which are given here for 28 compounds.

One may read the IC50 as the concentration that gives 50% inhibition.

T1 sequence (P05556 21-798, one chain of several): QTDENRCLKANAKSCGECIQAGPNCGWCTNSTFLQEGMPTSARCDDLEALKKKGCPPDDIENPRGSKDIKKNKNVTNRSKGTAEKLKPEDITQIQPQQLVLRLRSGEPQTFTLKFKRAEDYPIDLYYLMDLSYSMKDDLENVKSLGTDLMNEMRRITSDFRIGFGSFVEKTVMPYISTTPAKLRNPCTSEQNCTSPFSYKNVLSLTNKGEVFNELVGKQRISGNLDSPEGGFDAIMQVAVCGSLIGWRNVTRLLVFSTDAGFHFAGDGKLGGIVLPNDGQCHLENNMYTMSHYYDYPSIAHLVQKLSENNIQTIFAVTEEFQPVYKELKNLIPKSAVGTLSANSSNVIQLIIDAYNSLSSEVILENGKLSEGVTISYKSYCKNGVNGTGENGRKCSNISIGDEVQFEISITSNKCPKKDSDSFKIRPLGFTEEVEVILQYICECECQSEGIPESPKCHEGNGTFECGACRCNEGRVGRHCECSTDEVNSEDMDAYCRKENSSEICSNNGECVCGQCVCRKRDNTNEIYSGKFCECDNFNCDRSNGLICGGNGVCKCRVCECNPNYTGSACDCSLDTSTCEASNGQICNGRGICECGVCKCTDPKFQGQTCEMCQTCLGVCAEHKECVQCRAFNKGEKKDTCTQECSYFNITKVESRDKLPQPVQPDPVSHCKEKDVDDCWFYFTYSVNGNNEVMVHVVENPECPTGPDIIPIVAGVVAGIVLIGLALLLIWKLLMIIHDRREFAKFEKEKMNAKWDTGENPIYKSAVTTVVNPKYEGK

Consider `COc1cnn(C)c(=O)c1-c1ccc(C[C@H](NC(=O)C(C(C)C)n2c(C)ccc2C)C(=O)O)cc1` (mixture of isomers) [Cpd 33, 2-[2(2,5-Dimethyl-pyrrol-1-yl)-3-methyl-butyrylamino]-3-[4-(5-methoxy-2-methyl-3-oxo-2,3-dihydro-pyridazin-4-yl)-phenyl]-propionic acid], for which the figures for the IC50 on α4β1 and at human α4β7 integrin were 2400 nM and 7 nM, respectively. `COc1cnn(C)c(=O)c1-c1ccc(C[C@H](NC(=O)C(c2ccccc2)C(C)C)C(=O)O)cc1` (mixture of isomers) [Cpd 57]: the figures for the half-maximal inhibitory concentration (IC50) on α4β1 and at human α4β7 integrin were 1220 nM and 18 nM, respectively. Take `COc1cnn(C)c(=O)c1-c1ccc(CC(NC(=O)C(NC(=O)OC(C)(C)C)C(C)C)C(=O)O)cc1` (mixture of isomers) [Cpd 58]: the IC50 at α4β1 is above 5000 nM; at human α4β7 integrin, 18 nM. Regarding `COc1cnn(C)c(=O)c1-c1ccc(C[C@H](NC(=O)C(NS(=O)(=O)c2ccccc2[N+](=O)[O-])C(C)C)C(=O)O)cc1` (mixture of isomers) [Cpd 77], the values for the half-inhibitory concentration (IC50) at α4β1 and on human α4β7 integrin were 240 nM and 36 nM, respectively. `COc1cnn(C)c(=O)c1-c1ccc(CC(NC(=O)C2CCCN2)C(=O)O)cc1` (mixture of isomers) [Cpd 166]: the 50% inhibitory concentration (IC50) was above 5000 nM on α4β1 and 478 nM on human α4β7 integrin. For `COc1cnn(C)c(=O)c1-c1ccc(CC(NC(=O)C2CCCN2C(=O)OC(C)(C)C)C(=O)O)cc1` (mixture of isomers) [Cpd 195], the results for the IC50 on α4β1 and on human α4β7 integrin were above 5000 nM and 1280 nM, respectively. Turning to `CNC(C(=O)NC(Cc1ccc(-c2c(OC)cnn(C)c2=O)cc1)C(=O)O)C(C)C` (single isomer, unassigned) [Cpd 54], the figures for the IC50 at α4β1 and on human α4β7 integrin were 4020 nM and 17 nM, respectively. For the compound `CNC(C(=O)NC(Cc1ccc(-c2c(OC)cnn(C)c2=O)cc1)C(=O)O)C(C)C` (single isomer, unassigned) [Cpd 123], the IC50 on α4β1 was above 5000 nM; on human α4β7 integrin, 118 nM. `CCOC(=O)[C@H](Cc1ccc(-c2c(OC)cnn(C)c2=O)cc1)NC(=O)c1c(Cl)cccc1Cl` [Cpd 1]: the IC50 at α4β1 is above 5000 nM. For the compound `COc1cnn(C)c(=O)c1-c1ccc(C[C@H](NC(=O)C2(NC(C)C)CC2)C(=O)O)cc1` [Cpd 3], the IC50 at α4β1 is above 5000 nM.

In the case of `CCOc1cnn(C)c(=O)c1-c1ccc(C[C@H](NC(=O)c2c(Cl)cccc2Cl)C(=O)O)cc1` [Cpd 4], the figures for the IC50 at α4β1 and on human α4β7 integrin were 168 nM and 1 nM, respectively.

Consider `Cn1nc2c(c(-c3ccc(C[C@H](NC(=O)c4c(Cl)cccc4Cl)C(=O)O)cc3)c1=O)OCCO2` [Cpd 6, (S)-2-(2,6-Dichloro-benzoylamino)-3-[4-(2-methyl-3-oxo-2,3,6,7-tetrahydro-[1,4]dioxino[2,3-c]pyridazin-4-yl)-phenyl]-propionic acid], for which the half-maximal inhibitory concentration (IC50) on α4β1 stood at 49 nM; at human α4β7 integrin, 1 nM. Taken in the same sequence, the figures for `Cn1ncc(OCCOCCO)c(-c2ccc(C[C@H](NC(=O)c3c(Cl)cccc3Cl)C(=O)O)cc2)c1=O` [Cpd 7] were 192 nM and 2 nM. For the compound `Cn1ncc(OCCO)c(-c2ccc(C[C@H](NC(=O)c3c(Cl)cccc3Cl)C(=O)O)cc2)c1=O` [Cpd 8], the results for the half-inhibitory concentration (IC50) at α4β1 and at human α4β7 integrin were 303 nM and 2 nM, respectively. For `COc1cnn(C)c(=O)c1-c1ccc(C[C@H](NC(=O)c2c(Cl)c[n+]([O-])cc2Cl)C(=O)O)cc1` [Cpd 9], the IC50 at α4β1 worked out at 23 nM; at human α4β7 integrin it was 2 nM. In the case of `CN1CCC(Oc2cnn(C)c(=O)c2-c2ccc(C[C@H](NC(=O)c3c(Cl)cccc3Cl)C(=O)O)cc2)C1` (stereo partly shown) [Cpd 12], the IC50 on α4β1 was 305 nM; at human α4β7 integrin it was 2 nM. As to `Cn1nc2c(c(-c3ccc(C[C@H](NC(=O)c4c(Cl)cccc4Cl)C(=O)O)cc3)c1=O)NCCO2` [Cpd 13, (S)-2-(2,6-Dichloro-benzoylamino)-3-[4-(2-methyl-3-oxo-3,5,6,7-tetrahydro-2H-pyridazino[3,4-b][1,4]oxazin-4-yl)-phenyl]-propionic acid], the IC50 was determined as 130 nM at α4β1 and 2 nM on human α4β7 integrin. As for `COc1cnn(C)c(=O)c1-c1ccc(C[C@H](NC(=O)[C@@H](C(C)C)N(C)C(=O)Cc2ccsc2)C(=O)O)cc1` [Cpd 19], the half-maximal inhibitory concentration (IC50) on α4β1 is 44 nM; at human α4β7 integrin, 3 nM.

For `Cn1ncc(N2CCOCC2)c(-c2ccc(C[C@H](NC(=O)c3c(Cl)cccc3Cl)C(=O)O)cc2)c1=O` [Cpd 20], the IC50 was 484 nM on α4β1 and 3 nM at human α4β7 integrin. In the case of `Cn1ncc(OCCN2CCOCC2)c(-c2ccc(C[C@H](NC(=O)c3c(Cl)cccc3Cl)C(=O)O)cc2)c1=O` [Cpd 21], the concentration for half-maximal inhibition (IC50) worked out at 65 nM on α4β1 and 3 nM on human α4β7 integrin. For the compound `O=C(N[C@@H](Cc1ccc(-c2c(OCCN3CCOCC3)cnn(CCO)c2=O)cc1)C(=O)O)c1c(Cl)cccc1Cl` [Cpd 22], the IC50 came out at 376 nM at α4β1 and 3 nM on human α4β7 integrin. As to `CN1CCC(Oc2cnn(CCO)c(=O)c2-c2ccc(C[C@H](NC(=O)c3c(Cl)cccc3Cl)C(=O)O)cc2)CC1` [Cpd 23], the IC50 at α4β1 was determined as 248 nM; on human α4β7 integrin it was 3 nM.

`CC(C)Oc1cnn(CCO)c(=O)c1-c1ccc(C[C@H](NC(=O)c2c(Cl)cccc2Cl)C(=O)O)cc1` [Cpd 24]: the IC50 at α4β1 came to 249 nM; on human α4β7 integrin, 4 nM. In the case of `COc1cnn(C)c(=O)c1-c1ccc(C[C@H](NC(=O)C2(NC(C)C)CC2)C(=O)O)cc1` [Cpd 146], on α4β1, the half-maximal inhibitory concentration (IC50) is 218 nM.

`COc1cnn(C2CCCCC2)c(=O)c1-c1ccc(C[C@H](NC(=O)c2c(Cl)cccc2Cl)C(=O)O)cc1` [Cpd 165]: on human α4β7 integrin, the concentration for half-maximal inhibition (IC50) was found to be 471 nM. As for `COC(=O)N[C@@H](Cc1ccc(-c2c(OC)cnn(C)c2=O)cc1)C(=O)O` [Cpd 178], the 50% inhibitory concentration (IC50) at human α4β7 integrin was 706 nM. Same read-out and setting: next, `COc1cnn(C)c(=O)c1-c1ccc(C[C@H](NC(=O)OC(C)(C)C)C(=O)O)cc1` [Cpd 183]: 805 nM; `COc1cnn(C)c(=O)c1-c1ccc(C[C@H](NC(=O)C2(OCc3ccccc3)CC2)C(=O)O)cc1` [Cpd 230]: 92 nM.
